From BindingDB's records for doi:10.1021/bi900167q (Duke University, 2009)

Target: T1, UDP-3-O-acyl-N-acetylglucosamine deacetylase (Escherichia coli (strain K12), UniProt P0A725)
T1 sequence (P0A725 whole entry): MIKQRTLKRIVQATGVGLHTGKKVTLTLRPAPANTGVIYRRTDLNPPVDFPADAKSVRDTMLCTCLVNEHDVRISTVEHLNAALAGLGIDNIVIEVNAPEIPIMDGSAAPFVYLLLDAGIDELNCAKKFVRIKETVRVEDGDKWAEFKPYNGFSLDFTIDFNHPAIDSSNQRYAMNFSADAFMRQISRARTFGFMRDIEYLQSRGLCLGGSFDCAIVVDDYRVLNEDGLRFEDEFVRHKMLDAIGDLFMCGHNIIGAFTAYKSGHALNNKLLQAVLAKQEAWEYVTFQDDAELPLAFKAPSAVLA
Experiment: LpxC Assay
Description: Inhibition assay using E. coli LpxC.

**Q.** How did the IC50 turn out when `O=c1ccn(C2OC(CO/N=C/c3cccc(O)c3O)C(O)C2O)c(=O)[nH]1` (stereo not given) [1-68Ac analogue] was run?
**A.** Its IC50 is over 500 µM.

**Q.** With `O=c1ccn(C2OC(CO/N=C/c3cc(O)c(O)c(O)c3)C(O)C2O)c(=O)[nH]1` (stereo not given) [1-68Ad analogue] as the compound, how does the IC50 read?
**A.** The IC50 was over 500 µM.

**Q.** How did the IC50 turn out when `O=C(CO/N=C/c1ccc(O)c(O)c1O)NCC1OC(n2ccc(=O)[nH]c2=O)C(O)C1O` (stereo not given) [2-68A analogue] was run?
**A.** Its IC50 is 120 µM.

**Q.** How did the IC50 turn out when `O=c1ccn(C2OC(CO/N=C/c3ccc(O)c(O)c3)C(O)C2O)c(=O)[nH]1` (stereo not given) [1-68Aa analogue] was run?
**A.** Its IC50 is 30 µM.

**Q.** With `O=c1ccn(C2OC(CO/N=C/c3ccc(O)c(O)c3O)C(O)C2O)c(=O)[nH]1` (stereo not given) [1-68A analogue] as the compound, how does the IC50 read?
**A.** Its IC50 is 27 µM.
